For orientation: IC50 means the concentration that inhibits the measured activity by half. The low end stands for higher potency, the high end for lower potency. The GI50 is the concentration at which growth is held to half of that of the control.

The target in one experiment is T1, B-RAF (Homo sapiens, UniProt P15056, V600E).
T1 construct: made in house
Nature of the experiment: DELFIA Kinase Assay. The class given is biochemical. Particulars: 100 μM ATP, GST-MEK substrate. Summed up:
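Recombinant B-RAF (V600E) with GST-MEK substrate was preincubated with compound for 10 min at room temperature, then reacted with 100 μM ATP for 45 min on milk-preblocked wells, with antibody detection by DELFIA europium fluorescence. Response is taken as % of DMSO control after empty-vector blank subtraction; IC50 is from a variable-slope sigmoidal fit, mean of usually three independent runs.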

The subject of another experiment is pERK. Briefly: Cell Based Phospho-ERK Assay. As to conditions: 6 h, 6 hours incubation with test compound. The protocol: Biological Methods—Cell Based Phosho-ERK Assay
Compounds were assessed using a cell-based assay which was performed according to the following protocol.
Plate out 16,000 cells/well in 99 μL medium in a 96-well plate.
• 1. Add 1 μL inhibitor to the cells (total […] solution). • 2. Incubate the cells with test compound for 6 hours at 37° C. • 3. Aspirate off the solution from all of the wells. • 4. Fixate the cells with 100 μL 4% formaldehyde/0.25% Triton X-100 PBS per well. • 5. Incubate the plate for 1 hour at 4° C. • 6. Aspirate off the fixing solution and add 300 μL TBS per well. • 7. Leave the plate overnight at 4° C. Day 2: • 1. Wash the plate 2× with 200 μL PBS per well. • 2. Block with 100 μL 5% dried milk in TBS. • 3. Incubate the plate for 20 minutes at 37° C. • 4. Wash the plate 2× with 0.1% tween/H2O. • 5. Add 50 μL of 3 μg/mL primary antibody pERK (Sigma M8159), diluted in 5% milk powder/TBS, to each well. • 6. Incubate the plate for 2 hours at 37° C. • 7. Wash the plate 3× with 0.1% tween/H2O. • 8. Add 50 μL of 0.45 μg/mL secondary Europium-labelled anti-mouse antibody (Perkin Elmer) to each well. • 9. Incubate the plate for 1 hour at 37° C. • 10. Wash the plate 3× with 0.1% tween/H2O. • 11. Add 100 μL enhancement solution (Perkin Elmer) to each well. • 12. Leave the plate for approximately 10 minutes at room temperature before gently shaking the plate. • 13. Read Europium Time Resolved Fluorescence in Victor2. • 14. Wash the plate 2× with 0.1% tween/H2O. • 15. Measure the protein concentration with BCA (Sigma) by adding 200 μL of solution per well. • 16. Incubate the plate for 30 minutes at 37° C. • 17. Read absorbance levels at 570 nm in a plate reader.
Note that Europium counts are normalised for protein levels by dividing counts by absorbance.
Values for the blank (no cells) are subtracted from all values. The DMSO controls are set as 100% activity and assay points (the response) are calculated as a percentage of the DMSO control. Data are plotted using Graphpad Prism software and a non-linear regression line is calculated using a variable slope sigmoidal dose-response equation (Y=Bottom+(Top−Bottom)/(1+10^((LogEC50−X)*HillSlope)) where X is the logarithm of concentration. Y is the response). The IC50 generated by this procedure is the concentration of the drug that produces a percentage control fluorescence value midway between the saturation, and zero-effect plateaus. Three independent assays are usually performed and the mean IC50 is reported.

Another experiment concerns WM266.4 melanoma cells. Nature of the experiment: SRB Cell Proliferation Assay (SRB GI50). The class given is cell-based. Particulars: Homo sapiens, WM 266-4, 144 h, 6 days growth. Summed up:
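WM266.4 cells (1000/well) grown 6 days with compound at 100 μM to 0.005 μM (3-fold dilutions) in DMEM/10% FBS at 37 °C. Cells TCA-fixed, sulphorhodamine-B stained, A540 read. GI50 is the concentration giving A540, as % of untreated control, midway between the plateaus.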

T1 sequence (P15056 whole entry V600E): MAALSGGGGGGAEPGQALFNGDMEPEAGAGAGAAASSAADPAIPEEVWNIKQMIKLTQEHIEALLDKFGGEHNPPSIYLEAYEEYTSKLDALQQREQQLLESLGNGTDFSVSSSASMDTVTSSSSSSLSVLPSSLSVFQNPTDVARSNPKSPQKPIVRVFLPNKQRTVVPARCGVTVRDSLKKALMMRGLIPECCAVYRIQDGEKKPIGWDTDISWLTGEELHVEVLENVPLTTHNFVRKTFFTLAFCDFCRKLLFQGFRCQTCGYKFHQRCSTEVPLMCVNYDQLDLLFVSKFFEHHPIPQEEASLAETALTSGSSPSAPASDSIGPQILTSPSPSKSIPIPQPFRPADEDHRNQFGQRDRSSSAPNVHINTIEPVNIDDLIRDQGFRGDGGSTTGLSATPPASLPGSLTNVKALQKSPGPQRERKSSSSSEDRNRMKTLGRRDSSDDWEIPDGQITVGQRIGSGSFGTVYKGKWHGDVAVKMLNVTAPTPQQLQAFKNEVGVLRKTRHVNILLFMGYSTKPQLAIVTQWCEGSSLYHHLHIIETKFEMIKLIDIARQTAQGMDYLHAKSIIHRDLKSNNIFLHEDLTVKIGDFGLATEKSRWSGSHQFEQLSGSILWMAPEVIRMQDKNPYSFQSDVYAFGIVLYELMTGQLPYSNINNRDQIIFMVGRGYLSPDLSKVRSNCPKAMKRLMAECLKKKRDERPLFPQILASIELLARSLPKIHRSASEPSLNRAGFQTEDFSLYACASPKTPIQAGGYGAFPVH

Consider `CC(C)(C)c1cc(NC(=O)Nc2ccc(Oc3ccnc4[nH]c(=O)cnc34)cc2F)n(-c2ccc(S(C)(=O)=O)cc2)n1` [AA-090, 1-(3-tert-butyl-1-(4-(methylsulfonyl)phenyl)-1H-pyrazol-5-yl)-3-(2-fluoro-4-(3-oxo-3,4-dihydropyrido[3,2-b]pyrazin-8-yloxy)phenyl)urea], for which the values for the IC50 on B-RAF and in the experiment with pERK were 0.1 to 1 µM and less than 1 µM, respectively. Besides, the GI50 with WM266.4 melanoma cells was less than 1 µM.

As for `COc1ccc(-n2nc(C(C)(C)C)cc2NC(=O)Nc2ccc(Oc3ccnc4[nH]c(=O)c(C)nc34)cc2SC)cn1` [AA-064, 1-(3-tert-butyl-1-(6-methoxypyridin-3-yl)-1H-pyrazol-5-yl)-3-(4-(2-methyl-3-oxo-3,4-dihydropyrido[2,3-b]pyrazin-8-yloxy)-2-(methylthio)phenyl)urea], the IC50 against B-RAF was less than 0.1 µM; with pERK, less than 1 µM. Also, the GI50 with WM266.4 melanoma cells is less than 1 µM.

For `CC(C)(C)c1cc(NC(=O)Nc2ccc(Oc3ccnc4nc(N)c(=O)[nH]c34)c3ccccc23)n(-c2ccccc2)n1` [AA-081, 1-(4-(3-amino-2-oxo-1,2-dihydropyrido[2,3-b]pyrazin-8-yloxy)naphthalen-1-yl)-3-(3-tert-butyl-1-phenyl-1H-pyrazol-5-yl)urea], the IC50 is 0.1 to 1 µM at B-RAF and less than 1 µM in the experiment with pERK. The same molecule gave a 50% growth inhibitory concentration (GI50) in the experiment with WM266.4 melanoma cells of less than 1 µM.

Turning to `O=C(Nc1cc(C(F)(F)F)ccc1F)Nc1ccc(Oc2ccnc3nc(C(F)(F)F)c(=O)[nH]c23)c2ccccc12` [AA-083, 1-(2-fluoro-5-(trifluoromethyl)phenyl)-3-(4-(2-oxo-3-(trifluoromethyl)-1,2-dihydropyrido[2,3-b]pyrazin-8-yloxy)naphthalen-1-yl)urea], the IC50 on B-RAF was 0.1 to 1 µM; in the experiment with pERK it was 1 to 10 µM. The molecule further registered a 50% growth inhibitory concentration (GI50) in the experiment on WM266.4 melanoma cells of 1 to 10 µM.

Take `Cc1ccc(-n2nc(C(C)(C)C)cc2NC(=O)Nc2ccc(Oc3ccnc4[nH]c(=O)c(=O)[nH]c34)cc2F)cc1` [AA-074, 1-(3-Tert-butyl-1-p-tolyl-1H-pyrazol-5-yl)-3-(4-(2,3-dioxo-1,2,3,4-tetrahydropyrido[3,2-b]pyrazin-8-yloxy)-2-fluorophenyl)urea]: the 50% inhibitory concentration (IC50) on B-RAF is less than 0.1 µM; with pERK, less than 1 µM. For the same molecule, the GI50 in the experiment with WM266.4 melanoma cells is less than 1 µM.

With `CSc1cc(Oc2ccnc3[nH]c(=O)cnc23)ccc1NC(=O)Nc1cc(C(C)(C)C)nn1-c1ccccc1` [AA-067, 1-(3-tert-butyl-1-phenyl-1H-pyrazol-5-yl)-3-(2-(methylthio)-4-(3-oxo-3,4-dihydropyrido[2,3-b]pyrazin-8-yloxy)phenyl)urea], the IC50 on B-RAF is less than 0.1 µM; with pERK, less than 1 µM. This molecule displayed a GI50 in the experiment with WM266.4 melanoma cells of less than 1 µM.

For the molecule `Cc1ccc(-n2nc(C(C)(C)C)cc2NC(=O)Nc2ccc(Oc3ccnc4[nH]c(=O)c(N)nc34)c3ccccc23)cc1` [AA-077, 1-(4-(2-amino-3-oxo-3,4-dihydropyrido[2,3-b]pyrazin-8-yloxy)naphthalen-1-yl)-3-(3-tert-butyl-1-p-tolyl-1H-pyrazol-5-yl)urea], the values for the IC50 at B-RAF and in the experiment with pERK were 0.1 to 1 µM and less than 1 µM, respectively. The molecule further showed a GI50 in the experiment on WM266.4 melanoma cells of less than 1 µM.

In the case of `O=C(Nc1ccc(Oc2ccnc3[nH]c(=O)c(=O)[nH]c23)cc1F)Nc1cc(C(F)(F)F)ccc1F` [AA-072, 1-(4-(2,3-Dioxo-1,2,3,4-tetrahydropyrido[3,2-b]pyrazin-8-yloxy)-2-fluorophenyl)-3-(2-fluoro-5-(trifluoromethyl)phenyl)urea], the IC50 on B-RAF was less than 0.1 µM; in the experiment on pERK, less than 1 µM. The concentration for 50% growth inhibition (GI50) in the experiment on WM266.4 melanoma cells fell in the range of 1 to 10 µM.
